# Source: ChEMBL document CHEMBL4251592, “Recent advances in microtubule-stabilizing agents” (Eur J Med Chem, 2018)
# Key:
# K562 = experiment: Growth inhibition of human K562 cells incubated for 48 hrs by SRB assay; type: functional; details: K562, 48 h
# HCC 2998 = experiment: Growth inhibition of human HCC2998 cells incubated for 48 hrs by SRB assay; type: functional; details: HCC 2998, 48 h
# SF-539 = experiment: Growth inhibition of human SF539 cells incubated for 48 hrs by SRB assay; type: functional; details: SF-539, 48 h
# HL-60 = experiment: Growth inhibition of human HL60 cells incubated for 48 hrs by SRB assay; type: functional; details: HL-60, 48 h
# U-937 = experiment: Cytotoxicity against human U937 cells incubated for 48 hrs by SRB assay; type: functional, cell-based; details: U-937, 48 h
# SKM-1 = experiment: Cytotoxicity against human SKM1 cells incubated for 48 hrs by SRB assay; type: functional, cell-based; details: SKM-1, 48 h
GI50 (K562) [µg/mL],GI50 (HCC 2998) [µg/mL],GI50 (HL-60) [µg/mL],Compound,GI50 (SF-539) [µg/mL],IC50 (U-937) [nM],IC50 (SKM-1) [nM]
0.025 to 0.099,0.025 to 0.099,0.025 to 0.099,C=C1C[C@@H]2C/C=C/C(=O)C/C(C)=C\C=C\C(=O)O[C@H](C=O)C/C(C)=C/[C@H](C1)O2,0.025 to 0.099,,
,,,C=C1C[C@@H]2C/C=C/C(=O)C/C(C)=C\C=C\C(=O)O[C@H]([C@H](O)NC(=O)/C=C\C=C\C)C/C(C)=C/[C@H](C1)O2 [ZAMPANOLIDE],,1.1 to 2.9,1.1 to 2.9
